Assay results reported in patent US10793557B2, “Sting agonist compounds” (Merck Sharp & Dohme Corp., priority 2018, dated 2020).

Key:
[1] = target: T1, full-length WT STING (Homo sapiens, UniProt Q86WV6, H232R); assay: 3H-cGAMP filtration binding assay (WT STING); conditions: for EC50: competition with tritiated cGAMP, WT STING membrane; for inhibition at 20 µM: at 20,000 nM compound
T1 construct: AviTag (after gg linker) (C); HRV3C cleavage site (after gs linker) (C); HIS8 (C); made in house; host or cells: Trichoplusia ni (Hi-Five) insect cells infected with baculovirus (virus generated and amplified in Sf21 cells); used as a washed membrane preparation
Method in brief: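 EC50 values come from 4-parameter fits of remaining filter-bound tritium versus log concentration (10-point, 1:3 dilution). Insect-cell membranes carrying full-length WT STING were incubated 60 min at RT with compound and tritiated cGAMP (16 nM working stock) before filtration.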

[2] = target: T2, full-length HAQ STING (Homo sapiens, UniProt Q86WV6, G230A/H232R/R293Q/R71H); assay: 3H-cGAMP filtration binding assay (HAQ STING); conditions: competition with tritiated cGAMP, HAQ STING membrane
T2 construct: AviTag (after GG linker) (C); HRV3C cleavage site (after GS linker) (C); HIS8 (C); made in house; host or cells: Trichoplusia ni (Hi-Five) insect cells infected with baculovirus (virus generated and amplified in Sf21 cells); used as a washed membrane preparation
Method in brief: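 Hi-Five (T. ni) membranes overexpressing the STING variant (2.2 ug/ml working) preincubated with compound 60 min at RT in PBS, then [3H]cGAMP (8 nM working stock) added for 60 min at RT. Bound radioactivity captured on GF/B filters and counted by scintillation; EC50 from 4-parameter fit of control-normalized activity.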

[3] = tested on: secretion of interferon-beta from THP1 cells; assay: IFN-β secretion in THP1 cell culture (5 h); assay type: cell-based; conditions: Homo sapiens, THP-1, 5 h, 30 uM cGAMP = 100%; for activation at 30 µM: compound at 30 μM, read-out: % Effect at 30 μM relative to 2′3′-cGAMP; for activation at 3 µM: compound at 3 uM, read-out: % Effect relative to 2′3′-cGAMP (@ 3 uM)
Method in brief: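 IFN-β in supernatant measured by AlphaLISA after a 5 h, 37 °C incubation of THP1 cells with compound (10 concentrations, 30000 down to 1.5 nM, 0.3% DMSO) in low-serum RPMI. Values scaled between DMSO and 30 uM cGAMP controls; 4-parameter curve fit yields EC50.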

T2 sequence (Q86WV6 with tags, fused parts or gaps R71H/G230A/H232R/R293Q): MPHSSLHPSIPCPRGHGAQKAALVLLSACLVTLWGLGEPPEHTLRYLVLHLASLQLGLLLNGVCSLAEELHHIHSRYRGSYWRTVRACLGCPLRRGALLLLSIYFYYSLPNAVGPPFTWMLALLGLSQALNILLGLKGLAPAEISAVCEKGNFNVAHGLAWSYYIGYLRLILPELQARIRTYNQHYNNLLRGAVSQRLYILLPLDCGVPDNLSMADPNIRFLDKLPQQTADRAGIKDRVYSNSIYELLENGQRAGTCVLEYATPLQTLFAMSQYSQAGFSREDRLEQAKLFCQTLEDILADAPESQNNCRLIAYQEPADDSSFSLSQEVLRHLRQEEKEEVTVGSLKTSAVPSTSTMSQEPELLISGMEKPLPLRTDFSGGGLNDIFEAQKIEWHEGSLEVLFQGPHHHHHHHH
T1 sequence (Q86WV6 with tags, fused parts or gaps H232R): as the sequence (Q86WV6 with tags, fused parts or gaps R71H/G230A/H232R/R293Q) above, with H71R, A230G, Q293R counted along it

| Structure (SMILES) | EC50 [1] [nM] | EC50 [2] [nM] | inhibition at 20 µM [1] [%] | activation at 30 µM [3] [%] | activation at 3 µM [3] [%] |
| --- | --- | --- | --- | --- | --- |
| COc1cc2sc(C(=O)CCC(=O)O)cc2c(F)c1OCCCOc1c(OC)cc2sc(C(=O)[C@@H]3C[C@H]3C(=O)O)cc2c1F (relative stereo) [Example 88, trans-2-(5-(3-((2-(3-carboxypropanoyl)-4-fluoro-6-methoxybenzo[b]thiophen-5-yl)oxy)propoxy)-4-fluoro-6-methoxybenzo[b]thiophene-2-carbonyl)cyclopropane carboxylic acid] | 109 | 3 | – | 152 | – |
| COc1cc2sc(C(=O)C[C@H](C)C(=O)O)cc2cc1OCCCCCOc1cc2sc(C(=O)C[C@H](C)C(=O)O)cc2cc1OC [Example 104, (S)-4-(5-((5-((2-((S)-3-carboxybutanoyl)-5-methoxybenzo[b]thiophen-6-yl)oxy)pentyl)oxy)-6-methoxybenzo [b]thiophen-2-yl)-2-methyl-4-oxobutanoic acid] | 8900 | 467 | – | 35 | – |
| COc1cc2sc(C(=O)C[C@H](C)C(=O)O)cc2c(F)c1CCCOc1c(OC)cc2sc(C(=O)[C@@H]3CCC3C(=O)O)cc2c1F (stereo partly drawn) [Example 107, trans-2-(5-(3-(2-((S)-3-carboxybutanoyl)-4-fluoro-6-methoxybenzo[b]thiophen-5-yl)propoxy)-4-fluoro-6-methoxybenzo[b]thiophene-2-carbonyl)cyclobutane carboxylic acid] | 2 | 1 | – | 108 | – |
| COc1cc2sc(C(=O)CCC#N)cc2cc1CCCc1cc2cc(C(=O)CCC#N)sc2cc1OC [Example 175, 4,4′-(Propane-1,3-diylbis(6-methoxybenzo[b]thiophene-5,2-diyl))bis(4-oxobutanenitrile)] | – | 4020 | 46 | 13 | – |
| COc1cc2sc(C(=O)C[C@H](C)C(=O)O)cc2c(F)c1OCCCOc1cc2cc(C(=O)C[C@H](C)C(=O)O)sc2cc1O [Example 180, (S)-4-(5-(3-((2-((S)-3-Carboxybutanoyl)-4-fluoro-6-methoxybenzo[b]thiophen-5-yl)oxy)propoxy)-6-hydroxybenzo [b]thiophen-2-yl)-2-methyl-4-oxobutanoic acid] | 1 | 1 | – | – | 121 |
| COc1cc2cc(C(=O)C[C@H](C)C(=O)O)sc2cc1OCCCOc1c(OC)cc2sc(C(=O)[C@@H]3C[C@H]3C(=O)O)cc2c1F [Example 90, trans-2-(5-(3-((2-((S)-3-carboxybutanoyl)-5-methoxybenzo[b]thiophen-6-yl)oxy)propoxy)-4-fluoro-6-methoxybenzo[b]thiophene-2-carbonyl)cyclopropane carboxylic acid] | 978 | 58 | – | 125 | – |
| COc1cc2sc(C(=O)C[C@H](C)C(=O)O)cc2cc1OCCCOc1ccc2cc(C(=O)CCC(=O)O)sc2c1 [Example 43, (S)-4-(5-(3-((2-(3-carboxypropanoyl)benzo[b]thiophen-6-yl)oxy)propoxy)-6-methoxybenzo [b]thiophen-2-yl)-2-methyl-4-oxobutanoic acid] | 151 | 49 | – | 69 | – |
| COc1cc2sc(CC[C@H](C)C(=O)O)cc2c(F)c1OCCCOc1c(OC)cc2sc(C(=O)C[C@H](C)C(=O)O)cc2c1Br [Example 148, (S)-4-(4-bromo-5-(3-((2-((S)-3-carboxybutyl)-4-fluoro-6-methoxybenzo[b]thiophen-5-yl)oxy)propoxy)-6-methoxybenzo[b]thiophen-2-yl)-2-methyl-4-oxobutanoic acid] | 411 | 395 | – | – | 41 |
| COc1cc2sc(C(=O)C[C@H](C)C(=O)O)cc2c(F)c1OCC(C)(C)COc1c(OC)cc2sc(C(=O)C[C@H](C)C(=O)O)cc2c1F [Example 143, (2S,2′S)-4,4′-(((2,2-dimethylpropane-1,3-diyl)bis(oxy))bis(4-fluoro-6-methoxybenzo[b]thiophene-5,2-diyl))bis(2-methyl-4-oxobutanoic acid)] | 1450 | 75 | – | – | 26 |
| COc1cc2cc(C(=O)C[C@H](C)C(=O)O)sc2cc1OCCCCCCOc1cc2sc(C(=O)C[C@H](C)C(=O)O)cc2cc1OC [Example 112, (2S,2′S)-4,4′-(6,6′-(hexane-1,6-diylbis(oxy))bis(5-methoxybenzo[b]thiophene-6,2-diyl))bis(2-methyl-4-oxobutanoic acid)] | – | 15500 | 11 | 23 | – |
| COc1cc2sc(C(=O)CCC(=O)O)cc2nc1OCCOc1c(OC)cc2sc(C(=O)C[C@H](C)C(=O)O)cc2c1F [Example 83, (S)-4-(5-(2-((2-(3-carboxypropanoyl)-6-methoxythieno[3,2-b]pyridin-5-yl)oxy)ethoxy)-4-fluoro-6-methoxybenzo[b]thiophen-2-yl)-2-methyl-4-oxobutanoic acid] | 9 | 2 | – | 107 | – |
| COc1cc2sc(C(=O)CCC(=O)O)cc2cc1CCCOc1cc2sc(C(=O)CCC(=O)O)cc2cc1OC [Example 128, 4-(5-(3-((2-(3-carboxypropanoyl)-5-methoxybenzo[b]thiophen-6-yl)oxy)propyl)-6-methoxybenzo[b]thiophen-2-yl)-4-oxobutanoic acid] | 6310 | 1080 | – | 83 | – |

Further compounds by falling EC50 [2], results first:

| EC50 [1] [nM] | EC50 [2] [nM] | inhibition at 20 µM [1] [%] | Structure (SMILES) | activation at 30 µM [3] [%] | activation at 3 µM [3] [%] |
| --- | --- | --- | --- | --- | --- |
| 322 | 116 | – | COc1cc2sc(C(=O)CCC(=O)O)nc2cc1OCCc1nc2cc(C(=O)CCC(=O)O)sc2cc1OC [Example 9, 4-(5-(2-((2-(3-carboxypropanoyl)-6-methoxybenzo[d]thiazol-5-yl)oxy)ethyl)-6-methoxythieno[3,2-b]pyridin-2-yl)-4-oxobutanoic acid] | 48 | – |
| 1060 | 50 | – | COc1cc2sc(C(=O)C[C@H](C)C(=O)O)cc2cc1CCCOc1c(OC)cc2sc(C(=O)[C@@H]3C[C@H]3C(=O)O)cc2c1F [Example 84, trans-2-(5-(3-(2-((S)-3-carboxybutanoyl)-6-methoxybenzo[b]thiophen-5-yl)propoxy)-4-fluoro-6-methoxybenzo[b]thiophene-2-carbonyl)-cyclopropanecarboxylic acid] | 148 | – |
| 48 | 14 | – | COc1cc2sc(C(=O)C[C@H](C)C(=O)O)cc2cc1OCCCOc1ccc2sc(C(=O)CCC(=O)O)cc2c1 [Example 55, (S)-4-(5-(3-((2-(3-carboxypropanoyl)benzo[b]thiophen-5-yl)oxy)propoxy)-6-methoxybenzo[b]thiophen-2-yl)-2-methyl-4-oxobutanoic acid] | 53 | – |
| 23 | 6 | – | COc1cc2sc(C(=O)CCC(=O)O)cc2cc1CCCc1cc2cc(C(=O)CCC(=O)O)sc2cc1OC [Example 25, 4,4′-(5,5′-(propane-1,3-diyl)bis(6-methoxybenzo[b]thiophene-5,2-diyl))bis(4-oxobutanoic acid)] | 136 | – |
| 2 | 3 | – | COc1cc2sc(C(=O)C[C@H](C)C(=O)O)cc2cc1OCCCOc1c(OC)cc2sc(C(=O)CC(C)(C)C(=O)O)cc2c1F [Example 71, (S)-4-(5-(3-((2-(3-carboxybutanoyl)-6-methoxybenzo[b]thiophen-5-yl)oxy)propoxy)-4-fluoro-6-methoxybenzo[b]thiophen-2-yl)-2,2-dimethyl-4-oxobutanoic acid] | 15 | – |
| 4 | 2 | – | COc1cc2sc(C(=O)C[C@H](C)C(=O)O)cc2cc1CCCOc1c(OC)cc2sc(C(=O)CCC(=O)O)cc2c1F [Example 35, (S)-4-(5-(3-((2-(3-carboxypropanoyl)-4-fluoro-6-methoxybenzo[b]thiophen-5-yl)oxy)propyl)-6-methoxybenzo[b]thiophen-2-yl)-2-methyl-4-oxobutanoic acid] | 80 | – |
| 32 | 2 | – | COc1cc2sc(CC[C@H](C)C(=O)O)cc2cc1OCCCOc1c(OC)cc2sc(C(=O)C[C@H](C)C(=O)O)cc2c1F [Example 158, (S)-4-(5-(3-((2-((S)-3-carboxybutyl)-6-methoxybenzo[b]thiophen-5-yl)oxy)propoxy)-4-fluoro-6-methoxybenzo[b]thiophen-2-yl)-2-methyl-4-oxobutanoic acid] | 43 | – |
| 2 | 1 | – | COc1cc2sc(C(=O)CCC(=O)O)cc2nc1OCCCOc1c(OC)cc2sc(C(=O)C[C@H](C)C(=O)O)cc2c1F [Example 23, (S)-4-(5-(3-((2-(3-carboxypropanoyl)-6-methoxythieno [3,2-b]pyridin-5-yl)oxy)propoxy)-4-fluoro-6-methoxybenzo[b]thiophen-2-yl)-2-methyl-4-oxobutanoic acid] | 83 | – |
